# Data reported in patent US20230225991A1, “COMPOUNDS FOR USE IN THE TREATMENT OF ACUTE INTERMITTENT PORPHYRIA” (VESTLANDETS INNOVASJONSSELSKAP AS, priority 2019, published 2023).
# Tests used:
# WT-HMBS = molecular target: T1, WT-HMBS (Homo sapiens, UniProt P08397); assay: DSF thermal upshift (ΔTm) of HMBS; assay type: binding
# T1 construct: Full-length HMBS was cloned into pET-28a(+)-TEV vector and transformed into BL21 (DE3) cells for expression; 6xHis (N, cleaved yes); TEV protease cleavage site (N, cleaved yes); made in house; host or cells: E. coli BL21 (DE3)
# T1 sequence (P08397 1-361): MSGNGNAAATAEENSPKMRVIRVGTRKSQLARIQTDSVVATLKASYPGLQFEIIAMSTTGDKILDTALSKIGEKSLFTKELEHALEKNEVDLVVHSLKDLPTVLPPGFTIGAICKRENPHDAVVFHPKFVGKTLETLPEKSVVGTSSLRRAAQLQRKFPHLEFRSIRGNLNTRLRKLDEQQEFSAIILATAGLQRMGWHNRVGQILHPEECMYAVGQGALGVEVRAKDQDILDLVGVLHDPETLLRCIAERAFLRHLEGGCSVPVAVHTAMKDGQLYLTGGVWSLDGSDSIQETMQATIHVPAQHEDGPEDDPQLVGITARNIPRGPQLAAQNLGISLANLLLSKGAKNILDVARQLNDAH
# Method: Compounds BG-2, BG-3 and BG-4 were tested on recombinant WT-HMBS using DSF and tryptic proteolysis.
# [1] = molecular target: T2, HMBS in HepG2 cells over-expressing HMBS (Homo sapiens, UniProt P08397); assay: HMBS protein level in WT-HMBS stably transfected HepG2 cells (western immunoblot); assay type: cell-based; settings: 0-168 μM compound, 2% DMSO, 24 h; quantitative western immunoblotting
# T2 construct: expressed in transfected cells; host or cells: HepG2 (stably transfected, G418-selected)
# T2 sequence (P08397 1-361): T1 sequence (P08397 1-361)
# Method: The human hepatoma HepG2 cells were obtained from Leibniz-Institut DSMZ—Deutsche Sammlung von Mikroorganismen und Zellkulturen GmbH. Cells were maintained in RPMI 1640, GlutaMAX™ (Thermo Fisher Scientific) medium supplemented with 10% heat-inactivated fetal bovine serum and 1% penicillin-streptomycin (Thermo Fisher Scientific) in a humidified incubator with 5% CO2 at 37° C. HMBS cDNA was inserted into the pcDNA3.1(+) cloning vector (Thermo Fisher Scientific). The HepG2 cells were then transfected with the pcDNA3.1(+) vector containing HMBS using FuGENE®HD Transfection Reagent (Promega, Madison, Wis.) according to the manufacturer's recommendations. Stably transfected clones were selected for resistance to the neomycin analogue G418 (Thermo Fisher Scientific). WT-HMBS transfected HepG2 cells (2×10^6) were seeded and grown for 22 h before compounds were added to final concentrations of 0, 40, 84, 120 and 168 μM in 2% DMSO. Cells were harvested after 24 h and analyzed as described below. […]
# Cell lysate samples (20 μg total protein) were separated by electrophoresis and subsequently transferred to a PVDF transfer membrane (Bio-Rad). […] Chemiluminescence of secondary Ab-HRP conjugates was elicited using Luminata™ Crescendo Western HRP Substrate (Merck Millipore, Burlington, Mass.), imaged with Gel Doc™ XR+ (Bio-Rad) and quantified using Image Lab software (Bio-Rad). […]
"ΔTm at 122 µM (WT-HMBS; Table 3, average compound concentration 122 μM (2% DMSO))",SMILES,"ΔTm at 122 µM (WT-HMBS; thermal upshift at y = 0.5 in scaled fluorescence curves, average compound concentration 122 μM (2% DMSO))",Relative amount of HMBS in HepG2 cells [1]
–,O=Cc1cc(Cc2ccccc2Cl)cc([N+](=O)[O-])c1O [BG-1],1.6 °C,increasing relative amount of HMBS with increasing concentration
4.9 °C,O=C(c1ccccc1)c1ccc(Cl)c([N+](=O)[O-])c1 [BG-2],–,increased the HMBS protein levels similarly to BG-1
